target: Sodium channel protein type 9 subunit alpha (Homo sapiens, UniProt Q15858); assay: FLIPR Assay: […] Sodium Dye Assay with KCl: Cells were prepared by plating the recombinant HEK293 cells or other host cells expressing either recombinant or non-recombinant, native, Nav1.7 alpha subunit, alone or in combination with various beta and gamma subunits at a density of ~40,000 cells/well into a 96-well black, clear-bottom, PDL-coated plate. The assay can be adapted to 384-well or 1,536-well format, if desired, using proportionately fewer cells and less media. The plate was then incubated in growth media, with or without selective antibiotic, overnight at 37 C. at 5% CO2, 95% humidity, in preparation for the assay. For counter-screens of other voltage-gated sodium channels, the procedure was very similar, though optimal densities of cells, media and subsequent assay components can be fine-tuned for the particular cell line or isoform. […] Membrane Potential Assay with KCl: Cells are prepared by plating the recombinant HEK293 cells.; assay type: cell-based
Sequence (Q15858 whole entry): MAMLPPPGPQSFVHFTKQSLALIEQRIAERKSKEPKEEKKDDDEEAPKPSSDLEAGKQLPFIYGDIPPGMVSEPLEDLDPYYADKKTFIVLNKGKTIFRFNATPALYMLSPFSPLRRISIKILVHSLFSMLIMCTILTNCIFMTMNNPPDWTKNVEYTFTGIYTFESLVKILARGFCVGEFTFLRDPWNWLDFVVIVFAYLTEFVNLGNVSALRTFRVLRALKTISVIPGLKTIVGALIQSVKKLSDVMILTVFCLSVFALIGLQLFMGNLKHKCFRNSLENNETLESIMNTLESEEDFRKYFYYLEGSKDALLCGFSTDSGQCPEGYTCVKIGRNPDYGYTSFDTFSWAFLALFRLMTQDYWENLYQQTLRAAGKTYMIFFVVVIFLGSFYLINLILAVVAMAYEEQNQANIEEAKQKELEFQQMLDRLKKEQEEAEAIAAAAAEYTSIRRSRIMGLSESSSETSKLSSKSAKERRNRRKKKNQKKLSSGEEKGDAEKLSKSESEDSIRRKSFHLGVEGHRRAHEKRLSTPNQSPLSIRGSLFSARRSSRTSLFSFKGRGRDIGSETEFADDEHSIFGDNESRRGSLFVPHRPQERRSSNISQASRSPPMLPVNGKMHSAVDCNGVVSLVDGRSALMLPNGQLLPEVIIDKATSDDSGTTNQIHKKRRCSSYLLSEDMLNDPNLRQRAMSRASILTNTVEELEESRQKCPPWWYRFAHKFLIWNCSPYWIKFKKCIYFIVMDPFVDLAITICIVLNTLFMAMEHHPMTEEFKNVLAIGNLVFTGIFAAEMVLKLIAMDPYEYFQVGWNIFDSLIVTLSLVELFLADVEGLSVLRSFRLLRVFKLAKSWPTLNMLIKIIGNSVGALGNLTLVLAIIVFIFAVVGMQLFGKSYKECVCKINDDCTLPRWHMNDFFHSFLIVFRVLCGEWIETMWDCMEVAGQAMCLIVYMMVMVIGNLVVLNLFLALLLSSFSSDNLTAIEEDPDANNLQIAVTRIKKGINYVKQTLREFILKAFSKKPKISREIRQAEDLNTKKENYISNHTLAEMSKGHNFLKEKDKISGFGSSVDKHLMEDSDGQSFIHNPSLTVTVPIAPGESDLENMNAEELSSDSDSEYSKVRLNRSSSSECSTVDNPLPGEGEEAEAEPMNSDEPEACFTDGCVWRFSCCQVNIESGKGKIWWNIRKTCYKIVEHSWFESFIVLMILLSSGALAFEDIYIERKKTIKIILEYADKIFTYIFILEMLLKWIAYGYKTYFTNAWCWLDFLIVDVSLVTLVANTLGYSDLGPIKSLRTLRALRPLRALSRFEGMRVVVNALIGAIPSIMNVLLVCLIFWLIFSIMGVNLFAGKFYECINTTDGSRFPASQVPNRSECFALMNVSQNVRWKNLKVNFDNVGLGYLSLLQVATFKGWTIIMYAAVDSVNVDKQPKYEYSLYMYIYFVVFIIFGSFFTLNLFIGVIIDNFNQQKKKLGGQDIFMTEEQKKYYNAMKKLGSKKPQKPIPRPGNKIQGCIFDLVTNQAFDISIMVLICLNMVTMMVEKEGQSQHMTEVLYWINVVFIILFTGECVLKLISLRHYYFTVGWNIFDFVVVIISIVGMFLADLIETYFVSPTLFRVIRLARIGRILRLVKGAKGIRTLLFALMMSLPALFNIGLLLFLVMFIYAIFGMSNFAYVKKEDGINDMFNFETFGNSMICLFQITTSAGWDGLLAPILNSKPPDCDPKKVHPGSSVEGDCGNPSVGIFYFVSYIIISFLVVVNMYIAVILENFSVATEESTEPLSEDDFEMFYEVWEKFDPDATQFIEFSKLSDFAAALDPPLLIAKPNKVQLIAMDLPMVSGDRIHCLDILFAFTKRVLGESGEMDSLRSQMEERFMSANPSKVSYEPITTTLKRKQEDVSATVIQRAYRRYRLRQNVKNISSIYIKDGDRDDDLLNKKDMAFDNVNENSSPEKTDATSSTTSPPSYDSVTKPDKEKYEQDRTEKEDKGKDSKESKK

For `N#Cc1nc(-c2ccc(Oc3ccc(OC(F)(F)F)cc3)cc2)nc(N2CCOCC2)n1`, which IC50 is on record?
Its IC50 is over 20 µM.

With `NC(=O)c1nc(N[C@H]2CCNC2=O)nc(-c2ccc(Oc3ccc(C(F)(F)F)cn3)cc2)n1` as the molecule, how does the IC50 read?
The IC50 was 1.8 µM.

`N#Cc1nc(N[C@H]2CCNC2=O)nc(-c2ccc(Oc3ccc(C(F)(F)F)cn3)cc2)n1` was tested. Which IC50 did it give?
Its IC50 is over 20 µM.

Reference: ChEMBL document CHEMBL3886216, “Triazine carboxamides as sodium channel blockers” (2015)
